Laboratory results reported in patent US20240366770A1, “DEGRADATION OF BRUTON'S TYROSINE KINASE (BTK) BY CONJUGATION OF BTK INHIBITORS WITH E3 LIGASE LIGAND AND METHODS OF USE” (BeiGene Switzerland GmbH, priority 2021, published 2024).
Where two headings read alike, the source gives them in different places.

Tests used:
BTK = biological target: T1, BTK (Homo sapiens, UniProt Q06187); test: BTK degradation in TMD-8 cells (HTRF assay); assay type: cell-based; conditions: 6 h treatment, IC50 (DC50) of BTK degradation
T1 construct: High control=Cell group with added DMSO and without compound, indicating microplate readings without BTK degradation; endogenous in cells; host or cells: TMD-8
Method: (§1) TMD-8 cells were treated with compounds diluted in 0.2% DMSO, dilution was done according to the following protocol: (1) making 500× stock solution in DMSO from 1 mM by 6-fold dilution, total 8 doses were included; (2) making 2× solution in cell culture medium by transferring 0.5 μl 500× stock solution into 125 μl medium; (3) adding 15 μl of 2× solution to cells for incubation of 6 h.
After 6 h treatment, 10 μl 4× lysis buffer was added to each well; the plate was sealed and incubated for 30 min at room temperature on a plate shaker; Once the cells was lysed, 16 μL of cell lysate were transferred to a PE 384-well HTRF detection plate; 4 μL of pre-mixed HTRF antibodies were added to each well; the plate was covered with a plate sealer, and then spinned at 1000 rpm for 1 min, then incubated overnight at room temperature; the results were read on BMG PheraStar with HTRF protocol (337 nm-665 nm-620 nm).
The IC50 (DC50) value of a compound can be obtained by fitting the following equation
(§2) wherein, X and Y are known values, and IC50, Hillslope, Top and Bottom are the parameters obtained by fitting with software. Y is the inhibition percentage (calculated from the equation), X is the concentration of the compound; IC50 is the concentration of the compound when the 50% inhibition is reached. The smaller the IC50 value is, the stronger the inhibitory ability of the compound is. Vice versa, the higher the IC50 value is, the weaker the ability the inhibitory ability of the compound is; Hillslope represents the slope of the fitted curve, generally around 1 *; Bottom represents the minimum value of the curve obtained by data fitting, which is generally 0%±20%; Top represents the maximum value of the curve obtained by data fitting, which is generally 100%±20%. The experimental data were fitted by calculating and analyzing with Dotmatics data analysis software.

HEK-293 cells = test: HEK-293 cytotoxicity detection (CellTiter-Glo); assay type: cell-based; conditions: HEK-293 cells, 72 h incubation, CellTiter-Glo luminescence, IC50 of cell proliferation inhibition, read-out: HEK293
Method: as §1, with “HEK-293 cells” for “TMD-8 cells”, “from 5” for “from 1”, “by 4-fold” for “by 6-fold”, “0.5 ul” for “0.5 μl”, “adding 50” for “adding 15”, “of 72” for “of 6”
25 μl of the CellTiter-Glo®Reagent [(Promega) -Cat No. G7572] was added to each well in the 96-well plate. The contents were mixed for 2 minutes on an orbital shaker to induce cell lysis. The plate was then allowed to incubate at room temperature for 10 minutes to stabilize luminescent signal. Luminescence was recorded on BMG PheraStar with luminescence protocol.
The IC50 value of a compound can be obtained by fitting the following equation
as §2, with “Wherein,” for “wherein,”

T1 sequence (Q06187 whole entry): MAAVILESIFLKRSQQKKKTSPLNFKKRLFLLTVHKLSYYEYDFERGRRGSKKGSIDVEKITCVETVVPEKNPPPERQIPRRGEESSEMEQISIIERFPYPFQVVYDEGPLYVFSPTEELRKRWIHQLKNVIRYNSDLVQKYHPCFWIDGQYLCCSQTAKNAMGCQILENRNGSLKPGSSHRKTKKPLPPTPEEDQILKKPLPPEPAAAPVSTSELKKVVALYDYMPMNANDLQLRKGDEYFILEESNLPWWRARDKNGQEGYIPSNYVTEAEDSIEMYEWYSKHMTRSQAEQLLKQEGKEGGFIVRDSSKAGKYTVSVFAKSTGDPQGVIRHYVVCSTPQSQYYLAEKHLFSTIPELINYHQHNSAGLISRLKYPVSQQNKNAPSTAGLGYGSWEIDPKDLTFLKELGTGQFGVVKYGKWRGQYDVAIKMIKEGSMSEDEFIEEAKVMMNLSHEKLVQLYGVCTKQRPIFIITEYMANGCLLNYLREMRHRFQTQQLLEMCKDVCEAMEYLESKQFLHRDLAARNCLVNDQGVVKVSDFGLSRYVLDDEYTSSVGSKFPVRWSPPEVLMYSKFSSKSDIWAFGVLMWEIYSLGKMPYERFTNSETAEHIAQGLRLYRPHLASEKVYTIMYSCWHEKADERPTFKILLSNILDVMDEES

Row | SMILES | DC50 (BTK) | IC50 (HEK-293 cells; Homo sapiens) | IC50 (HEK-293 cells)
1 | Cc1cc(-c2ncnc3[nH]c4cc(N5CCN(CC6CCN(c7ccc(N8CCC(=O)NC8=O)c(C)c7)CC6)CC5)ccc4c23)c(F)cc1[C@@H](C)NC(=O)c1noc(C(C)(C)C)n1 [Example 24, (R)-5-(tert-butyl)-N-(1-(4-(7-(4-((1-(4-(2,4-dioxotetrahydropyrimidin-1(2H)-yl)-3-methylphenyl)piperidin-4-yl)methyl)piperazin-1-yl)-9H-pyrimido[4,5-b]indol-4-yl)-5-fluoro-2-methylphenyl)ethyl)-1,2,4-oxadiazole-3-carboxamide] | 0.47 nM | > 10000 nM | 
2 | Cc1cc(-c2ncnc3[nH]c4cc(C5CCN(CC6CCN(c7ccc(N8CCC(=O)NC8=O)cc7)CC6)CC5)ccc4c23)ccc1[C@@H](C)NC(=O)c1nc(C(C)(C)C)no1 [Example 5, (R)-3-(tert-butyl)-N-(1-(4-(7-(1-((1-(4-(2,4-dioxotetrahydropyrimidin-1(2H)-yl)phenyl)piperidin-4-yl)methyl)piperidin-4-yl)-9H-pyrimido[4,5-b]indol-4-yl)-2-methylphenyl)ethyl)-1,2,4-oxadiazole-5-carboxamide] | 0.731 nM | 3250 nM | 
3 | COc1cc2c(cc1N1CCN(Cc3ccc(SC4CCC(=O)NC4=O)cc3)CC1)[nH]c1ncnc(-c3ccc([C@@H](C)NC(=O)c4nc(C5(C)CC5)no4)c(C)c3)c12 (stereo partly drawn) [Example 77, N-((1R)-1-(4-(7-(4-(4-((2,6-dioxopiperidin-3-yl)thio)benzyl)piperazin-1-yl)-6-methoxy-9H-pyrimido[4,5-b]indol-4-yl)-2-methylphenyl)ethyl)-3-(1-methylcyclopropyl)-1,2,4-oxadiazole-5-carboxamide] | 8.48 nM | > 10000 nM | 
4 | Cc1cc(-c2ncnc3[nH]c4cc(N5CCC6(CCN(CC7CCN(c8ccc(N9CCC(=O)NC9=O)cc8)CC7)C6)CC5)ccc4c23)ccc1[C@@H](C)NC(=O)c1nc(C(C)(C)C)no1 [Example 100, (R)-3-(tert-butyl)-N-(1-(4-(7-(2-((1-(4-(2,4-dioxotetrahydropyrimidin-1(2H)-yl)phenyl)piperidin-4-yl)methyl)-2,8-diazaspiro[4.5]decan-8-yl)-9H-pyrimido[4,5-b]indol-4-yl)-2-methylphenyl)ethyl)-1,2,4-oxadiazole-5-carboxamide] | 1.02 nM | 3420 nM | 
5 | COc1cc2c(cc1N1CCN(CC3CCN(c4ccc(N5CCC(=O)NC5=O)cc4)CC3)CC1)[nH]c1ncnc(-c3ccc([C@@H](C)NC(=O)c4nc(C(C)(C)C)no4)c(C)c3)c12 [Example 46, (R)-3-(tert-butyl)-N-(1-(4-(7-(4-((1-(4-(2,4-dioxotetrahydropyrimidin-1(2H)-yl)phenyl)piperidin-4-yl)methyl)piperazin-1-yl)-6-methoxy-9H-pyrimido[4,5-b]indol-4-yl)-2-methylphenyl)ethyl)-1,2,4-oxadiazole-5-carboxamide] | 0.366 nM | > 10000 nM | 
6 | Cc1c([C@@H](C)NC(=O)c2noc(C(C)(C)C)n2)ccc(-c2ncnc3[nH]c4cc(N5CCN(CCc6ccc(SC7CCC(=O)NC7=O)cc6)CC5)ccc4c23)c1F (stereo partly drawn) [Example 80, 5-(tert-butyl)-N-((1R)-1-(4-(7-(4-(4-((2,6-dioxopiperidin-3-yl)thio)phenethyl)piperazin-1-yl)-9H-pyrimido[4,5-b]indol-4-yl)-3-fluoro-2-methylphenyl)ethyl)-1,2,4-oxadiazole-3-carboxamide] | 16.6 nM | > 10000 nM | 
7 | Cc1cc(-c2ncnc3[nH]c4cc(N5CCN(C6CC(c7ccc([C@@H]8CCC(=O)NC8=O)cc7)C6)CC5)ccc4c23)ccc1[C@@H](C)NC(=O)c1nc(C2(C)CC2)no1 (stereo partly drawn) [Example 68, N—((R)-1-(4-(7-(4-(3-(4-((S)-2,6-dioxopiperidin-3-yl)phenyl)cyclobutyl)piperazin-1-yl)-9H-pyrimido[4,5-b]indol-4-yl)-2-methylphenyl)ethyl)-3-(1-methylcyclopropyl)-1,2,4-oxadiazole-5-carboxamide] | 1.6 nM |  | > 10000 nM
8 | Cc1cc(-c2ncnc3[nH]c4cc(N5CCN(C6CC(c7ccc(N8CCC(=O)NC8=O)cc7)C6)CC5)ccc4c23)ccc1[C@@H](C)NC(=O)c1nc(C2(C)CC2)no1 (stereo partly drawn) [Example 125, (R)—N-(1-(4-(7-(4-(3-(4-(2,4-dioxotetrahydropyrimidin-1(2H)-yl)phenyl)cyclobutyl)piperazin-1-yl)-9H-pyrimido[4,5-b]indol-4-yl)-2-methylphenyl)ethyl)-3-(1-methylcyclopropyl)-1,2,4-oxadiazole-5-carboxamide] | 0.197 nM | > 10000 nM | 
9 | COc1cc2c(cc1N1CCN(C3CC(c4ccc([C@H]5CCC(=O)NC5=O)cc4)C3)CC1)[nH]c1ncnc(-c3ccc([C@@H](C)NC(=O)c4nc(C(C)(C)C)no4)c(C)c3F)c12 (stereo partly drawn) [Example 56, 3-(tert-butyl)-N—((R)-1-(4-(7-(4-(3-(4-((R)-2,6-dioxopiperidin-3-yl)phenyl)cyclobutyl)piperazin-1-yl)-6-methoxy-9H-pyrimido[4,5-b]indol-4-yl)-3-fluoro-2-methylphenyl)ethyl)-1,2,4-oxadiazole-5-carboxamide] | 10.3 nM | > 10000 nM | 
10 | COc1cc2c(cc1N1CCN(C3CC(c4ccc([C@@H]5CCC(=O)NC5=O)cc4)C3)CC1)[nH]c1ncnc(-c3ccc([C@@H](C)NC(=O)c4noc(C(C)(C)C)n4)c(C)c3F)c12 (stereo partly drawn) [Example 59, 5-(tert-butyl)-N—((R)-1-(4-(7-(4-(3-(4-((S)-2,6-dioxopiperidin-3-yl)phenyl)cyclobutyl)piperazin-1-yl)-6-methoxy-9H-pyrimido[4,5-b]indol-4-yl)-3-fluoro-2-methylphenyl)ethyl)-1,2,4-oxadiazole-3-carboxamide] | 4.55 nM | > 10000 nM | 
11 | Cc1c([C@@H](C)NC(=O)c2noc(C(C)(C)C)n2)ccc(-c2ncnc3[nH]c4cc(N5CCN(C6CCN(Cc7ccc8c(c7)n(C7CCC(=O)NC7=O)c(=O)n8C)CC6)CC5)ccc4c23)c1F (stereo partly drawn) [Example 87, 5-(tert-butyl)-N-((1R)-1-(4-(7-(4-(1-((3-(2,6-dioxopiperidin-3-yl)-1-methyl-2-oxo-2,3-dihydro-1H-benzo[d]imidazol-5-yl)methyl)piperidin-4-yl)piperazin-1-yl)-9H-pyrimido[4,5-b]indol-4-yl)-3-fluoro-2-methylphenyl)ethyl)-1,2,4-oxadiazole-3-carboxamide] | > 2000 nM | > 10000 nM | 
12 | COc1cc2c(cc1N1CCN(C3CCN(c4cccc(C5CCC(=O)NC5=O)c4)C3)CC1)[nH]c1ncnc(-c3ccc([C@@H](C)NC(=O)c4nc(C(C)(C)C)no4)c(C)c3)c12 (stereo partly drawn) [Example 51, 3-(tert-butyl)-N-((1R)-1-(4-(7-(4-(1-(3-(2,6-dioxopiperidin-3-yl)phenyl)pyrrolidin-3-yl)piperazin-1-yl)-6-methoxy-9H-pyrimido[4,5-b]indol-4-yl)-2-methylphenyl)ethyl)-1,2,4-oxadiazole-5-carboxamide] | 0.987 nM | > 10000 nM | 
13 | COc1cc2c(cc1N1CCN(Cc3ccc4c(c3)n(C)c(=O)n4C3CCC(=O)NC3=O)CC1)[nH]c1ncnc(-c3ccc([C@@H](C)NC(=O)c4nc(C(C)(C)C)no4)c(C)c3F)c12 (stereo partly drawn) [Example 71, 3-(tert-butyl)-N-((1R)-1-(4-(7-(4-((1-(2,6-dioxopiperidin-3-yl)-3-methyl-2-oxo-2,3-dihydro-1H-benzo[d]imidazol-5-yl)methyl)piperazin-1-yl)-6-methoxy-9H-pyrimido[4,5-b]indol-4-yl)-3-fluoro-2-methylphenyl)ethyl)-1,2,4-oxadiazole-5-carboxamide] | 9.24 nM | > 10000 nM | 
